Here are results for three molecules from ChEMBL document CHEMBL1127286, “Quantitative structure-activity relationships study of endothelin-1 analogs” (Bioorg Med Chem Lett, 1994).

Structures are written as SMILES.

The target of test [1] is T1, Endothelin-1 receptor (Rattus norvegicus) (UniProt P26684).
T1 sequence (whole entry): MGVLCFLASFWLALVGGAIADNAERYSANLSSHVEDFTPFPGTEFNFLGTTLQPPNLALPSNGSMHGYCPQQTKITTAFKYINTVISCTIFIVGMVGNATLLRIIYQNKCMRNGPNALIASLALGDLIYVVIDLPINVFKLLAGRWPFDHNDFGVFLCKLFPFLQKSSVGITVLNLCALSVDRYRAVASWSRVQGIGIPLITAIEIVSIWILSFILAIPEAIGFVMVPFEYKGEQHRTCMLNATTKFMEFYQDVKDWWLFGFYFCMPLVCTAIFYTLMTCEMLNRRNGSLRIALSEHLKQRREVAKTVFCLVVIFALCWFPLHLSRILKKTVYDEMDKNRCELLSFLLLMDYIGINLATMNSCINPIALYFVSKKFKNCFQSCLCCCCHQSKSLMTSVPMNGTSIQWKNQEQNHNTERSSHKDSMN
The experiment in a line: Concentration required to produce 50% inhibition of binding against ET A receptor obtained from rat thoracic aortic membrane.

Test [2] addresses T2, Endothelin receptor type B (Rattus norvegicus) (UniProt P21451).
T2 sequence (whole entry): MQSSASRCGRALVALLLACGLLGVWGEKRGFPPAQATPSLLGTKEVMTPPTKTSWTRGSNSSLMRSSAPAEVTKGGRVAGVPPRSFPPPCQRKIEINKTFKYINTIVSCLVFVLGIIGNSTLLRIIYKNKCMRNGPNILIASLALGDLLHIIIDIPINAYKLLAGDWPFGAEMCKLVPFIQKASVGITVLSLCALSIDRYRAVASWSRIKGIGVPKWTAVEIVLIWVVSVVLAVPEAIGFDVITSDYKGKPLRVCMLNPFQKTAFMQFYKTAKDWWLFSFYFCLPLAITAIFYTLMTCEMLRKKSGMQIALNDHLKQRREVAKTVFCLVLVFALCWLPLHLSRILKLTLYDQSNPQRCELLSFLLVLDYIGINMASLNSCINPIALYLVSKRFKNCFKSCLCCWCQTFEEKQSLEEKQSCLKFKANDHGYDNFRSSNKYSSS
The experiment in a line: Concentration required to produce 50% inhibition of binding against ET B receptor obtained from rat brain membrane.

A word on the pIC50: it is the IC50 on a negative log10 scale, so that one unit is a factor of ten. Regarding `CC[C@@H](C)[C@H](NC(=O)[C@H](CC(=O)O)NC(=O)[C@H](CC(C)C)NC(=O)[C@H](Cc1c[nH]cn1)NC(=O)[C@H](CS)NC(=O)[C@H](Cc1ccccc1)NC(=O)[C@H](Cc1ccc(O)cc1)NC(=O)[C@@H](NC(=O)[C@H](CS)NC(=O)[C@H](CCC(=O)O)NC(=O)[C@H](CCCCN)NC(=O)[C@H](CC(=O)O)NC(=O)[C@H](CCSC)NC(=O)[C@H](CC(C)C)NC(=O)[C@H](CO)NC(=O)[C@H](CO)NC(=O)[C@H](CS)NC(=O)[C@H](CO)NC(=O)[C@@H](N)CS)C(C)C)C(=O)N[C@@H](C(=O)N[C@@H](Cc1c[nH]c2ccccc12)C(=O)O)C1CCCCC1`, the pIC50 in test [1] amounted to 7.04; in test [2] it was 9.59.
Consider `CCC(CC)C[C@@H](NC(=O)[C@@H](NC(=O)[C@H](CC(=O)O)NC(=O)[C@H](CC(C)C)NC(=O)[C@H](Cc1c[nH]cn1)NC(=O)[C@H](CS)NC(=O)[C@H](Cc1ccccc1)NC(=O)[C@H](Cc1ccc(O)cc1)NC(=O)[C@@H](NC(=O)[C@H](CS)NC(=O)[C@H](CCC(=O)O)NC(=O)[C@H](CCCCN)NC(=O)[C@H](CC(=O)O)NC(=O)[C@H](CCSC)NC(=O)[C@H](CC(C)C)NC(=O)[C@H](CO)NC(=O)[C@H](CO)NC(=O)[C@H](CS)NC(=O)[C@H](CO)NC(=O)[C@@H](N)CS)C(C)C)[C@H](C)CC)C(=O)N[C@@H](Cc1c[nH]c2ccccc12)C(=O)O`, for which the pIC50 in test [1] is 8.06; in test [2], 9.78.
For `CC[C@@H](C)[C@H](NC(=O)[C@H](CC(=O)O)NC(=O)[C@H](CC(C)C)NC(=O)[C@H](Cc1c[nH]cn1)NC(=O)[C@H](CS)NC(=O)[C@H](Cc1ccccc1)NC(=O)[C@H](Cc1ccc(O)cc1)NC(=O)[C@@H](NC(=O)[C@H](CS)NC(=O)[C@H](CCC(=O)O)NC(=O)[C@H](CCCCN)NC(=O)[C@H](CC(=O)O)NC(=O)[C@H](CCSC)NC(=O)[C@H](CC(C)C)NC(=O)[C@H](CO)NC(=O)[C@H](CO)NC(=O)[C@H](CS)NC(=O)[C@H](CO)NC(=O)[C@@H](N)CS)C(C)C)C(=O)N[C@H](C(=O)N[C@@H](Cc1c[nH]c2ccccc12)C(=O)O)C1CCCCC1`, in that order: 9.88 and 10.
